Entries after “also recorded” stand apart in the source; their conditions may differ. Read-outs that look alike come from different tables or passages of the source.

The results in this text go back to US4487932A, “2,6-Dimethyl-3,5-bis-(1-adamantylhydr oxycarbonyl)-4-(2-difluoromethoxyphenyl)-1,4-dihydropyridine” (Institut Organicheskogo Sinteza Akademii Nauk Latviiskoi, priority 1983, dated 1984).

Data set [1] has as its system white mice. As to the kind of experiment: in vivo. The source says:
(§1) The studies of acute toxicity established the present compound to be low-toxic.
(§2) Acute toxicity of investigated compounds for
(§3) white mice upon intraperitoneal administration

Data set [2] concerns myocardial ischemia (partial occlusion of the coronary artery). As to the kind of experiment: rise of ST segment (epicardiac ECG) in partial occlusion of the coronary artery with superposition of a high artificial rhythm. Type of data set: in vivo, cats and dogs.
The test system of data set [3] is systolic arterial pressure. As to conditions: for lowering of the systolic arterial pressure: 1 hour after peroral administration; for lowering of the systolic arterial pressure / lowering of the arterial pressure: present compound 10 mg/kg; for lowering of the arterial pressure: in 5 hours after peroral administration.
Data set [4] in a line: in vivo. Particulars: mouse, in vivo, ip.
Description: as §1, §2, §3

For data set [5], the system named is arrhythmia caused by barium chloride. Put plainly: barium chloride arrhythmia in rabbits. Type of data set: in vivo.
A short description of data set [6]: stability in storage. Type of data set: physicochemical. As to conditions: conventional conditions.
The subject of data set [7] is myocardial ischemia (complete occlusion of the coronary artery). Put plainly: ischemic change in the heart in complete occlusion of the coronary artery. Type of data set: in vivo, dogs.
Data set [8] has as its system arrhythmia and cardiac arrest caused by calcium chloride. As to the kind of experiment: calcium chloride model of arrhythmia in white mice. The data set is classed as in vivo.
Data set [9] has as its system coronary circulation / cardiovascular system. Particulars: for Duration: increase of coronary blood flow. The source says: The action of 2,6-dimethyl-3,5-bis-(1-adamantylhydroxycarbonyl)-4-(2-difluoromethoxyphenyl)-1,4-dihydropyridine on the cardiovascular system was investigated in experiments with cats, rats, and mice.
Data set [10] relates to arterial pressure. Put plainly: arterial pressure in rats of the line SHR, daily peroral administration during 10 days. Type of data set: in vivo. The procedure: The application of the present compound with daily peroral administration to rats of the line SHR in the dose of 20 mg/kg during 10 days causes lowering of the arterial pressure by 30-60 mm Hg during 24 hours. […] After the administration of the present compound was discontinued, the systolic arterial pressure gradually rose and reached the control group value in 3 days.

The subject of data set [11] is venous blood outflowing from the coronary sinus of the heart. As to the kind of experiment: content of oxygen in venous blood outflowing from the coronary sinus; minute volume of the heart. Particulars: 0.2 to 3 mg/kg. Type of data set: in vivo, cats.
Data set [12] is described as follows: solubility. Type of data set: physicochemical. Particulars: ethyl alcohol, chloroform, and other organic solvents and oils.
For data set [13], the system named is aconitic arrhythmia. Put plainly: aconitic model of arrhythmia in albino rats. The data set is classed as in vivo. Particulars: peroral and intravenous administration.
Where [14] appears, read: white mice, intraperitoneal, present compound = 1.
Setting [15] is: preliminary peroral, 2 to 10 mg/kg, barium chloride 4 mg/kg intravenously.
Setting [16] is: narcotized cats, dose 0.05 mg/kg.
Setting [17] is: narcotized cats, dose 0.50 mg/kg.
[18] abbreviates: narcotized cats, dose 2.00 mg/kg.

Compound `CCN(CC)CCNC(=O)c1ccc(N)cc1` [Novocainamide (procainamide), reference compound] displayed a Relative toxicity in data set [1] (mouse, in vivo, ip) of 28.9.
In the case of `COC(=O)C1=C(C)NC(C)=C(C(=O)OC)C1c1ccccc1[N+](=O)[O-]` [Niphedipine, 2,6-dimethyl-4-o-nitrophenyl-3,5-dimethoxycarbonyl-1,4-dihydropyridine, reference compound], in [2] (intravenous, 0.01 to 0.05 mg/kg, partial occlusion + high artificial rhythm), the “prevention of the rise of the ST segment” value was “only in an insignificant prevention of the rise of the ST segment”. In addition, in data set [3], the “lowering of the systolic arterial pressure” value is on record as 51.7 mm Hg and the “lowering of the arterial pressure” value is 14 mm Hg.
On to `COc1ccc(Cc2nccc3cc(OC)c(OC)cc23)cc1OC` [Papaverine, reference compound], for which the Relative toxicity in data set [1] (setting [14]) was found to be 92.3.
On the same count and under the same terms, the figure for `C=C[C@H]1C[N@@]2CC[C@H]1C[C@@H]2[C@@H](O)c1ccnc2ccc(OC)cc12` [Quinidine, reference compound] is 53.8.
In data set [4], `CC1=C(C(=O)OC23CC4CC(CC(C4)C2)C3)C(c2ccccc2OC(F)F)C(C(=O)OC23CC4CC(CC(C4)C2)C3)=C(C)N1` (stereo not shown) [Present compound, 2,6-dimethyl-3,5-bis-(1-adamantylhydroxycarbonyl)-4-(2-difluoromethoxyphenyl)-1,4-dihydropyridine] yielded an LD50 of 8400 mg/kg. This compound also showed a Relative toxicity in data set [1] (mouse, in vivo, ip) of 1. Besides, in [1] (white mice, intraperitoneal), the LD50 was 8400(6885.2-10248) mg/kg, the “toxicity relative to niphedipine” value is given as 1/44 and the “toxicity relative to quinidine” value is given as 1/53. The “effectiveness by ECG data (epicardium lead) compared with niphedipine and nitroglycerine” value in [2] (experiments with cats and dogs) is “more effective than niphedipine and nitroglycerine”. Moreover, in [2] (intravenous 0.3 to 2 mg/kg vs nitroglycerine 0.05 mg/kg), the “effect compared with nitroglycerine” value is “almost two times more durative and more pronounced than of nitroglycerine”. Moreover, the “rise of the ST segment on epicardiac leads of the ECG” value in [2] (preliminary intravenous, 0.3 to 2 mg/kg, partial occlusion + high artificial rhythm) is “considerably diminishes, and in some cases even completely precludes a rise of the ST segment”. In [3], the “lowering of the systolic arterial pressure” value stood at 31.5 mm Hg and the “lowering of the arterial pressure” value was determined as 8.6 mm Hg. For the same compound, in data set [3] (peroral 10 mg/kg), the “lowering of arterial pressure compared with niphedipine” value is recorded as “less pronounced than the action of niphedipine”. In data set [5], the “prophylactic and therapeutic effect on barium arrhythmia” value was “prophylactic and therapeutic effect”. In [5] (setting [15]), the alleviation of arrhythmia entry is given as “considerably alleviates arrhythmia” and the shortening of arrhythmia is 2-5 times. For the same compound, the stability in storage result in data set [6] is listed as “stable when stored under conventional conditions”. Moreover, the myocardial ischemia result in data set [7] (complete occlusion and also partial occlusion with high artificial rhythm, cats and dogs) was “diminishes myocardial ischemia”. Further, the “ischemic change in the heart” value in data set [7] (dogs, preliminary administration, 0.5 to 2 mg/kg, complete occlusion) is recorded as “considerably diminished the ischemic change in the heart”. In addition, the “antiarrhythmic activity compared with novocainamide (procainamide) and quinidine” value in data set [8] (calcium model of arrhythmia) was “in smaller doses, and in a more pronounced manner; also recorded: exceeds that of novocainamide (procainamide) and quinidine”. The “prevention of arrhythmia and cardiac arrest” value in data set [8] (peroral, 1 to 5 mg/kg, calcium chloride intravenous) is “prevents the appearance of arrhythmia and cardiac arrest”. In data set [9] (0.005 to 3 mg/kg), the “effect on arterial pressure, systemic venous pressure and aortal blood flow” value is reported as “does not cause sharp drop of the arterial pressure, noticeable increase of the systemic venous pressure, or diminution of the aortal blood flow”. The “undesirable effects (sharp drop of arterial pressure, diminishing of arterial/aortal blood flow, increase of systemic venous pressure)” value in data set [9] (0.05 to 3 mg/kg) is “causing no undesirable effects; also recorded: without causing such undesirable effects as sharp drop of the arterial pressure or pronounced diminishing of the aortal blood flow”. For the same compound, the “duration of action compared with niphedipine” value in [9] (equiactive doses) was “twice as durative”. For the same compound, the “rising of the systemic venous pressure” value in data set [9] (large doses, intravenous administration) was “does not bring about rising of the systemic venous pressure”. In [9] (narcotized cats), the coronarodilating action result is on record as “pronounced coronarodilating action” and the “coronarodilating activity compared with niphedipine” value is “somewhat inferior to niphedipine in activity”. In data set [9] (setting [16]), the “Change of aortal blood flow” value is “+5%”, the “Increase of space velocity of coronary blood flow” value (shortened to “Increase … of coronary blood flow”) came out at 10%, the “Lowering of arterial pressure” value was 0% and the Duration turned out to be 25 min. In addition, in data set [9] (setting [17]), the “Change of aortal blood flow” value is recorded as “+12%”, the “Change of systemic venous pressure” value is -10%, the “Increase … of coronary blood flow” value was 60% and the “Lowering of arterial pressure” value worked out at 5%. Besides, in data set [9] (setting [17]), the Duration is recorded as 50 min. Moreover, in data set [9] (setting [18]), the “Change of aortal blood flow” value is on record as “+20%”, the “Change of systemic venous pressure” value was “+8%”, the “Increase … of coronary blood flow” value worked out at 120% and the “Lowering of arterial pressure” value was found to be 20%. The same compound came in with a Duration in [9] (setting [18]) of 90 min. Also, the “time for systolic arterial pressure to reach the control group value after discontinuation” value in [10] (after daily peroral 20 mg/kg during 10 days) is reported as 3 days. Besides, the pulse frequency result in data set [10] (daily peroral 20 mg/kg during 10 days) is given as “No increase of the pulse frequency was observed”. In addition, the “lowering of the arterial pressure” value in data set [10] (daily peroral 20 mg/kg during 10 days, during 24 hours) is recorded as 30-60 mm Hg. Besides, the “minute volume of the heart” value in data set [11] was “somewhat increases”. Further, in data set [11] (cats), the “content of oxygen in venous blood outflowing from the coronary sinus” value is recorded as “increases the content of oxygen in venous blood; also recorded: increases the content of oxygen in the venous blood”. Besides, in [12], the solubility result is “readily soluble in ethyl alcohol, chloroform, and other organic solvents and oils”. Also, in data set [13], the “prophylactic and therapeutic activity on aconitic arrhythmia” value was “considerable prophylactic and therapeutic activity; also recorded: prophylactic and therapeutic effect”.
